{
  "source": "patent US9730938B2",
  "about": "“Bruton's tyrosine kinase inhibitor combinations and uses thereof” (Pharmacyclics LLC, priority 2014, dated 2017)",
  "key": {"Jeko cells": {"tested_on": "Jeko cells", "assay": "3-day CellTiter Glow combination study in Jeko cells with wild-type or mutant CARD11", "assay_type": "cell-based", "conditions": "FIG. 6", "experimental": "Jeko cells, a MCL cell line, and OCI-Ly3, a DLBCL cell line, were used for this experiment.\nIn summary, 10,000 cells were plated into 96-well plates and treated with different concentrations of inhibitors. 3 days later, CellTiter Glow reagent was added into the wells and the luminescent signals were measured."}, "TMD8": {"tested_on": "TMD8", "assay": "Combined drug treatment cell viability, CellTiter-Glo assay (Example 2)", "assay_type": "cell-based", "conditions": "3 days"}, "U2932": {"tested_on": "U2932", "assay": "Combined drug treatment cell viability, CellTiter-Glo assay (Example 2)", "assay_type": "cell-based", "conditions": "3 days"}, "OCI-LY-10": {"tested_on": "OCI-LY-10", "assay": "Combined drug treatment cell viability, CellTiter-Glo assay (Example 2)", "assay_type": "cell-based", "conditions": "3 days"}, "HBL-1": {"tested_on": "HBL-1", "assay": "Combined drug treatment cell viability, CellTiter-Glo assay (Example 2)", "assay_type": "cell-based", "conditions": "3 days"}, "OCI-LY-3": {"tested_on": "OCI-LY-3", "assay": "Combined drug treatment cell viability, CellTiter-Glo assay (Example 2)", "assay_type": "cell-based", "conditions": "3 days"}, "SU-DHL-2": {"tested_on": "SU-DHL-2", "assay": "Combined drug treatment cell viability, CellTiter-Glo assay (Example 2)", "assay_type": "cell-based", "conditions": "3 days"}, "ABC-DLBCL cells": {"tested_on": "ABC-DLBCL cells", "conditions": "Ferch et al. 2009; Hailfinger et al. 2009; cited from earlier work"}, "[1]": {"conditions": "ibrutinib 0 nM, JAK3 10 μM / MCL-1 3 μM alone"}, "[2]": {"conditions": "ibrutinib 0.0512 nM, JAK3 10 μM / MCL-1 3 μM / medium alone"}, "[3]": {"conditions": "ibrutinib 0.256 nM, JAK3 10 μM / MCL-1 3 μM / medium alone"}, "[4]": {"conditions": "ibrutinib 1.28 nM, JAK3 10 μM / MCL-1 3 μM / medium alone"}, "[5]": {"conditions": "ibrutinib 6.4 nM, JAK3 10 μM / MCL-1 3 μM / medium alone"}, "[6]": {"conditions": "ibrutinib 32 nM, JAK3 10 μM / MCL-1 3 μM / medium alone"}, "[7]": {"conditions": "ibrutinib 160 nM, JAK3 10 μM / MCL-1 3 μM / medium alone"}, "[8]": {"conditions": "ibrutinib 800 nM, JAK3 10 μM / MCL-1 3 μM / medium alone"}, "[9]": {"conditions": "ibrutinib 20000 nM, JAK3 10 μM / MCL-1 3 μM / medium alone"}, "[10]": {"conditions": "ibrutinib 40000 nM, JAK3 10 μM / MCL-1 3 μM / medium alone"}},
  "data": [
    {"compound": "CC(C)C[C@H](NC(=O)[C@H](Cc1ccccc1)NC(=O)c1cnccn1)B(O)O", "note": "[Velcade]", "values": [
      {"measurement": "sensitization of Jeko cells containing the mutant CARD11 to ibrutinib treatment", "setting": "Jeko cells", "value": "sensitized"}
    ]},
    {"compound": "C[C@@H]1CCN(C(=O)CC#N)C[C@@H]1N(C)c1ncnc2[nH]ccc12", "note": "[tofacitinib]", "values": [
      {"measurement": "luminescence (CellTiter-Glo)", "setting": "TMD8; [1]", "value": 42085.03},
      {"measurement": "luminescence (CellTiter-Glo)", "setting": "TMD8; [2]", "value": 22758.56},
      {"measurement": "luminescence (CellTiter-Glo)", "setting": "TMD8; [3]", "value": 22844.02},
      {"measurement": "luminescence (CellTiter-Glo)", "setting": "TMD8; [4]", "value": 23722.74},
      {"measurement": "luminescence (CellTiter-Glo)", "setting": "TMD8; [5]", "value": 22806.63},
      {"measurement": "luminescence (CellTiter-Glo)", "setting": "TMD8; [6]", "value": 23770.82},
      {"measurement": "luminescence (CellTiter-Glo)", "setting": "TMD8; [7]", "value": 23674.67},
      {"measurement": "luminescence (CellTiter-Glo)", "setting": "TMD8; [8]", "value": 21620.76},
      {"measurement": "luminescence (CellTiter-Glo)", "setting": "TMD8; [9]", "value": 6463.53},
      {"measurement": "luminescence (CellTiter-Glo)", "setting": "TMD8; [10]", "value": 19962.15},
      {"measurement": "luminescence (CellTiter-Glo)", "setting": "U2932; [1]", "value": 74370.91},
      {"measurement": "luminescence (CellTiter-Glo)", "setting": "U2932; [2]", "value": 61632.23},
      {"measurement": "luminescence (CellTiter-Glo)", "setting": "U2932; [3]", "value": 61314.09},
      {"measurement": "luminescence (CellTiter-Glo)", "setting": "U2932; [4]", "value": 61987.79},
      {"measurement": "luminescence (CellTiter-Glo)", "setting": "U2932; [5]", "value": 58424.16},
      {"measurement": "luminescence (CellTiter-Glo)", "setting": "U2932; [6]", "value": 57921.57},
      {"measurement": "luminescence (CellTiter-Glo)", "setting": "U2932; [7]", "value": 55595.72},
      {"measurement": "luminescence (CellTiter-Glo)", "setting": "U2932; [8]", "value": 54213.58},
      {"measurement": "luminescence (CellTiter-Glo)", "setting": "U2932; [9]", "value": 24327.81},
      {"measurement": "luminescence (CellTiter-Glo)", "setting": "U2932; [10]", "value": 54924.70},
      {"measurement": "luminescence (CellTiter-Glo)", "setting": "OCI-LY-10; [1]", "value": 55820.26},
      {"measurement": "luminescence (CellTiter-Glo)", "setting": "OCI-LY-10; [2]", "value": 51855.78},
      {"measurement": "luminescence (CellTiter-Glo)", "setting": "OCI-LY-10; [3]", "value": 42984.83},
      {"measurement": "luminescence (CellTiter-Glo)", "setting": "OCI-LY-10; [4]", "value": 35330.40},
      {"measurement": "luminescence (CellTiter-Glo)", "setting": "OCI-LY-10; [5]", "value": 19547.86},
      {"measurement": "luminescence (CellTiter-Glo)", "setting": "OCI-LY-10; [6]", "value": 13432.93},
      {"measurement": "luminescence (CellTiter-Glo)", "setting": "OCI-LY-10; [7]", "value": 13583.65},
      {"measurement": "luminescence (CellTiter-Glo)", "setting": "OCI-LY-10; [8]", "value": 14159.61},
      {"measurement": "luminescence (CellTiter-Glo)", "setting": "OCI-LY-10; [9]", "value": 14383.00},
      {"measurement": "luminescence (CellTiter-Glo)", "setting": "OCI-LY-10; [10]", "value": 14751.73},
      {"measurement": "luminescence (CellTiter-Glo)", "setting": "HBL-1; [1]", "value": 78088.40},
      {"measurement": "luminescence (CellTiter-Glo)", "setting": "HBL-1; [2]", "value": 48007.16},
      {"measurement": "luminescence (CellTiter-Glo)", "setting": "HBL-1; [3]", "value": 49532.94},
      {"measurement": "luminescence (CellTiter-Glo)", "setting": "HBL-1; [4]", "value": 56756.95},
      {"measurement": "luminescence (CellTiter-Glo)", "setting": "HBL-1; [5]", "value": 46403.61},
      {"measurement": "luminescence (CellTiter-Glo)", "setting": "HBL-1; [6]", "value": 47226.84},
      {"measurement": "luminescence (CellTiter-Glo)", "setting": "HBL-1; [7]", "value": 41745.82},
      {"measurement": "luminescence (CellTiter-Glo)", "setting": "HBL-1; [8]", "value": 37551.94},
      {"measurement": "luminescence (CellTiter-Glo)", "setting": "HBL-1; [9]", "value": 17614.87},
      {"measurement": "luminescence (CellTiter-Glo)", "setting": "HBL-1; [10]", "value": 39380.73},
      {"measurement": "luminescence (CellTiter-Glo)", "setting": "OCI-LY-3; [1]", "value": 60068.93},
      {"measurement": "luminescence (CellTiter-Glo)", "setting": "OCI-LY-3; [2]", "value": 52005.22},
      {"measurement": "luminescence (CellTiter-Glo)", "setting": "OCI-LY-3; [3]", "value": 56590.84},
      {"measurement": "luminescence (CellTiter-Glo)", "setting": "OCI-LY-3; [4]", "value": 49371.84},
      {"measurement": "luminescence (CellTiter-Glo)", "setting": "OCI-LY-3; [5]", "value": 52737.31},
      {"measurement": "luminescence (CellTiter-Glo)", "setting": "OCI-LY-3; [6]", "value": 47894.25},
      {"measurement": "luminescence (CellTiter-Glo)", "setting": "OCI-LY-3; [7]", "value": 42659.67},
      {"measurement": "luminescence (CellTiter-Glo)", "setting": "OCI-LY-3; [8]", "value": 54193.44},
      {"measurement": "luminescence (CellTiter-Glo)", "setting": "OCI-LY-3; [9]", "value": 59782.00},
      {"measurement": "luminescence (CellTiter-Glo)", "setting": "OCI-LY-3; [10]", "value": 45217.97},
      {"measurement": "luminescence (CellTiter-Glo)", "setting": "SU-DHL-2; [1]", "value": 133588.4},
      {"measurement": "luminescence (CellTiter-Glo)", "setting": "SU-DHL-2; [2]", "value": 154568.4},
      {"measurement": "luminescence (CellTiter-Glo)", "setting": "SU-DHL-2; [3]", "value": 167037.0},
      {"measurement": "luminescence (CellTiter-Glo)", "setting": "SU-DHL-2; [4]", "value": 171896.5},
      {"measurement": "luminescence (CellTiter-Glo)", "setting": "SU-DHL-2; [5]", "value": 165146.8},
      {"measurement": "luminescence (CellTiter-Glo)", "setting": "SU-DHL-2; [6]", "value": 173773.3},
      {"measurement": "luminescence (CellTiter-Glo)", "setting": "SU-DHL-2; [7]", "value": 165414.5},
      {"measurement": "luminescence (CellTiter-Glo)", "setting": "SU-DHL-2; [8]", "value": 167444.0},
      {"measurement": "luminescence (CellTiter-Glo)", "setting": "SU-DHL-2; [9]", "value": 2706.8},
      {"measurement": "luminescence (CellTiter-Glo)", "setting": "SU-DHL-2; [10]", "value": 164389.1}
    ]},
    {"compound": "Z-VRPR-FMK", "values": [
      {"measurement": "effect on ABC-DLBCL cells", "setting": "ABC-DLBCL cells", "value": "exerts toxic effects"}
    ]}
  ]
}
